Source: ChEMBL document CHEMBL1201862, “PubChem BioAssay data set” (2004)
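Dose response: 5 concentrations. Exposure: 48 h. Format: 96-well plates. Endpoint: linear interpolation; highest concentration if not reached. The concentration for 50% growth inhibition is given as GI50.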 Calls of active or inactive are those of the source. No stated cut-off is given here; in the data, active = GI50 up to about 1.1 µM and inactive = higher.

How the values were obtained:
Assay in all cases: NCI anticancer screen, dose series, 48 h
KM12 = tested on: KM12
MDA-MB-435 = tested on: MDA-MB-435
HL-60 = tested on: HL-60
SK-OV-3 = tested on: SK-OV-3
SF-295 = tested on: SF-295
DU-145 = tested on: DU-145
NCI-H460 = tested on: NCI-H460
EKVX = tested on: EKVX
SK-MEL-2 = tested on: SK-MEL-2
MDA-MB-231 = tested on: MDA-MB-231
RPMI-8226 = tested on: RPMI-8226
CAKI-1 = tested on: CAKI-1
LOX IMVI = tested on: LOX IMVI
UACC-62 = tested on: UACC-62
OVCAR-4 = tested on: OVCAR-4
A498 = tested on: A498
Malme-3M = tested on: Malme-3M
MOLT-4 = tested on: MOLT-4
SW-620 = tested on: SW-620
Hs-578T = tested on: Hs-578T

Measured: GI50

Nc1nc(Cl)cc(NCC2(CO)CC(CCc3ccccc3)C2)n1 (stereo not given)
inactive: KM12 83.9 µM | MDA-MB-435 > 100 µM | HL-60 3.44 µM | SK-OV-3 > 100 µM | SF-295 5.9 µM | DU-145 > 100 µM | NCI-H460 22.3 µM | EKVX 2.83 µM | SK-MEL-2 97.9 µM | MDA-MB-231 > 81.1 µM | RPMI-8226 2.9 µM | CAKI-1 > 100 µM | LOX IMVI 3.26 µM | UACC-62 > 58.6 µM | OVCAR-4 > 29.3 µM | A498 > 100 µM | Malme-3M > 100 µM | MOLT-4 8.38 µM | SW-620 > 100 µM | Hs-578T > 59.4 µM

O=C1c2cccnc2S(=O)(=O)N1c1ccc([N+](=O)[O-])cc1
inactive: KM12 > 100 µM | MDA-MB-435 > 100 µM | HL-60 24 µM | SK-OV-3 > 100 µM | SF-295 > 100 µM | DU-145 > 100 µM | NCI-H460 > 100 µM | EKVX > 100 µM | SK-MEL-2 > 100 µM | MDA-MB-231 > 100 µM | RPMI-8226 57 µM | CAKI-1 > 100 µM | LOX IMVI > 100 µM | UACC-62 > 100 µM | OVCAR-4 > 100 µM | A498 > 100 µM | Malme-3M 51.8 µM | MOLT-4 > 100 µM | SW-620 > 100 µM | Hs-578T 64 µM

CN1CCc2cc(N)cc3c2C1Cc1ccc2c(c1-3)OCO2 (stereo not given)
inactive: KM12 13.5 µM | MDA-MB-435 9.59 µM | HL-60 28.4 µM | SK-OV-3 44.9 µM | SF-295 31.9 µM | DU-145 32.8 µM | NCI-H460 28.9 µM | EKVX 50.9 µM | SK-MEL-2 36.1 µM | MDA-MB-231 49.2 µM | RPMI-8226 15.9 µM | CAKI-1 41.5 µM | LOX IMVI 17.7 µM | UACC-62 22.8 µM | OVCAR-4 30 µM | A498 49.9 µM | Malme-3M 20.9 µM | MOLT-4 1.46 µM | SW-620 31 µM | Hs-578T 28.2 µM

Cc1cc(N(CCC#N)CCC#N)ccc1C(=N/NC(=O)c1cc(Cl)ccc1O)/N=N/c1cccc(Cl)c1
inactive: KM12 11.2 µM | MDA-MB-435 27.3 µM | HL-60 4.48 µM | SK-OV-3 20.6 µM | SF-295 22 µM | DU-145 18.1 µM | NCI-H460 6.27 µM | EKVX 14.4 µM | SK-MEL-2 10.8 µM | MDA-MB-231 15.7 µM | RPMI-8226 9.79 µM | CAKI-1 17.9 µM | LOX IMVI 11.4 µM | UACC-62 10.6 µM | OVCAR-4 8.85 µM | A498 28.4 µM | Malme-3M 14.2 µM | MOLT-4 4.81 µM | SW-620 17.8 µM | Hs-578T 39.1 µM

Cc1cc2nc3c(C#N)c(C)c(CCCl)c(Cl)n3c2cc1C
inactive: KM12 6.1 µM | MDA-MB-435 2.07 µM | HL-60 2.55 µM | SK-OV-3 > 28.6 µM | SF-295 3.49 µM | DU-145 3.84 µM | NCI-H460 5.77 µM | EKVX 10.5 µM | SK-MEL-2 1.87 µM | MDA-MB-231 2 µM | RPMI-8226 2.58 µM | CAKI-1 2.88 µM | LOX IMVI 1.46 µM | UACC-62 1.93 µM | OVCAR-4 6.76 µM | A498 2.92 µM | Malme-3M 2.96 µM | MOLT-4 2.08 µM | SW-620 2.34 µM | Hs-578T 3.23 µM
